Assay results from patent US9676782B2, “Substituted pyrazolo[1,5-a]pyrazines as negative allosteric modulators of metabotropic glutamate receptor 3” (Vanderbilt University, priority 2014, dated 2017).
pEC50, pIC50: −log10 of the molar value.

Tests used:
rat mGlu5 = rat mGlu5 (Rattus norvegicus (Rat), UniProt P31424); assay: mGlu5 Ca2+ flux assay; type: cell-based; details: for Fold selectivity (mGlu3 vs. mGlu5): ratio of rat mGlu5 EC50 or IC50 to rat mGlu3 IC50; for pEC50: read-out: rat mGlu5 EC50 or IC50; for Emax at 30 µM: PAM, amplitude of response at 30 μM test compound as % of maximal response to glutamate, read-out: rat mGlu5 Glu max (%)
Sequence of rat mGlu5 (P31424 21-1203): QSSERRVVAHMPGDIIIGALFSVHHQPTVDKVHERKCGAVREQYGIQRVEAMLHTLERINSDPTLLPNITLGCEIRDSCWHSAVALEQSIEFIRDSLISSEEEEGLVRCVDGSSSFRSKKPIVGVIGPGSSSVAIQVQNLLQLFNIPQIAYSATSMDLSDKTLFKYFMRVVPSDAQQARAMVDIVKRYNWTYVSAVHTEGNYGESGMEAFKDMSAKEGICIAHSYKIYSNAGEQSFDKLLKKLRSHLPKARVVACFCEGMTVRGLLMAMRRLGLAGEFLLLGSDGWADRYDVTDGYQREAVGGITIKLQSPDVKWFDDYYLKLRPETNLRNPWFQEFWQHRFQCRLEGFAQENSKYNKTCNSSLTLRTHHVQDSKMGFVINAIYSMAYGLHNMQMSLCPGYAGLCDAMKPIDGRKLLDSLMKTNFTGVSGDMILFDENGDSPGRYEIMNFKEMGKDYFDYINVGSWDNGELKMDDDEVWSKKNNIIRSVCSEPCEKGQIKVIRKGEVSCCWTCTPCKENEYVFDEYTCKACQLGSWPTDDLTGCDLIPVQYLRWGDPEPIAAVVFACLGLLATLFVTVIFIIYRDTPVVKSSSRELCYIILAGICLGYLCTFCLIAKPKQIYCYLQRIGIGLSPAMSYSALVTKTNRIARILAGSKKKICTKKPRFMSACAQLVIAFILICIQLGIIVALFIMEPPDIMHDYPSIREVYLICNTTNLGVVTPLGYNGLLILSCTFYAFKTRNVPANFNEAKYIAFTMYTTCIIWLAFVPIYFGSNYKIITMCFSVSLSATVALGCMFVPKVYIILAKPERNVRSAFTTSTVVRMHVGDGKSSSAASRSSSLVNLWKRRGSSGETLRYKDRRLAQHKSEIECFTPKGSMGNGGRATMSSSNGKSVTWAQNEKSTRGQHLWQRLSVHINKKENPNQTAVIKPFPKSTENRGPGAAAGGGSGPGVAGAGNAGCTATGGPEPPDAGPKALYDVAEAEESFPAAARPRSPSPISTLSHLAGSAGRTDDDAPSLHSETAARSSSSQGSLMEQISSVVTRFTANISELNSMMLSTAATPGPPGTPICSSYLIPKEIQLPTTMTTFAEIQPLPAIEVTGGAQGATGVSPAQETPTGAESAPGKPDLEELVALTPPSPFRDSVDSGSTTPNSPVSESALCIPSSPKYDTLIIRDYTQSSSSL
Method in brief: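 Ca2+ flux read kinetically (FDSS7000) after overnight culture at 37° C/5% CO2 and a 5 min room-temperature buffer step following dye removal. Signals expressed per well as F/F0 and normalized to peak glutamate response; EC50 fitted by free 4-parameter logistic, three replicates per concentration equally weighted.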

rat mGlu3 = rat mGlu3 (Rattus norvegicus (Rat), UniProt P31422); assay: mGlu3 Ca2+ flux assay; type: cell-based; details: for pIC50: NAM potency, decrease of glutamate EC80 response, >30,000 = no measurable activity, >10,000 = no plateau, read-out: rat mGlu3 IC50; for remaining activity at 30 µM: amplitude of response at 30 μM test compound as % of maximal response to glutamate, read-out: rat mGlu3 Glu max (%)
Sequence of rat mGlu3 (P31422 23-879): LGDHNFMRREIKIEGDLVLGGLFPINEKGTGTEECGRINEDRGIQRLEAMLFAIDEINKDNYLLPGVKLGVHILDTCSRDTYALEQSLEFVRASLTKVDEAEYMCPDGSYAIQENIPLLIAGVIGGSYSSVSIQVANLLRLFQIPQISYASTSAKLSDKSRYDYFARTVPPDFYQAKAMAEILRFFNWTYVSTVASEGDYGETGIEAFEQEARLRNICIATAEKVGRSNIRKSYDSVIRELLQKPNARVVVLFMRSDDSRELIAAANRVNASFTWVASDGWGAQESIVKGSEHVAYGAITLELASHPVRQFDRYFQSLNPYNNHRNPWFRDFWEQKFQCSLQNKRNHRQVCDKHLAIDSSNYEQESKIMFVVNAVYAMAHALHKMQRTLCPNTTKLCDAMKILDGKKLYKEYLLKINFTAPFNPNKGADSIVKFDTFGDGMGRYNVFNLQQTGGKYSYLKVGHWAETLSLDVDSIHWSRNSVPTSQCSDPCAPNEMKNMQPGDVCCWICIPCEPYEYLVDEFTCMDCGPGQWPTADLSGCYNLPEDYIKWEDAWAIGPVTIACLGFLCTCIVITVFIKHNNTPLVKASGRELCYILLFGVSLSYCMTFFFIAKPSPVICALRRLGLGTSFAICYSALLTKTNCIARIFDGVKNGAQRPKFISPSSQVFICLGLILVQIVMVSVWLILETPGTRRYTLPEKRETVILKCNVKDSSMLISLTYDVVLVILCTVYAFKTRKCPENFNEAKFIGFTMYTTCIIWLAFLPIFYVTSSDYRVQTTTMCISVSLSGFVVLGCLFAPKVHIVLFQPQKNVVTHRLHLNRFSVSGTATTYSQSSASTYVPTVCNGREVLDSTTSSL
Method in brief: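 This calcium mobilization assay used rat mGlu3 cells cultured overnight (37° C., 5% CO2) and read on the FDSS7000 after a 10 minute room-temperature incubation in 20 μL assay buffer. Each of 360 readings per well was divided by its initial value (F/F0). Potency came from fitting normalized responses against log concentration with an unconstrained 4 parameter logistic equation, weighting triplicate points equally.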

Row | Structure (SMILES) | Fold selectivity (mGlu3 vs. mGlu5) (rat mGlu5) | pEC50 (rat mGlu5) | pIC50 (rat mGlu3) | remaining activity at 30 µM (rat mGlu3) | Emax at 30 µM (rat mGlu5)
1 | COc1ccc(NCc2cc3n(n2)[C@@H](C)CN(c2ccc(F)cc2)C3=O)cc1 [Compound 63, (S)-5-(4-fluorophenyl)-2-(((4-methoxyphenyl)amino)methyl)-7-methyl-6,7-dihydropyrazolo[1,5-a]pyrazin-4(5H)-one] | >3.5 | < 4.52 | 5.08 | -0.6% | 
2 | C[C@@H]1CN(c2ccc(F)cc2)C(=O)c2cc(CNc3ccc(OC(F)F)cc3)nn21 [Compound 64, (R)-2-(((4-(difluoromethoxy)phenyl)amino)methyl)-5-(4-fluorophenyl)-7-methyl-6,7-dihydropyrazolo[1,5-a]pyrazin-4(5H)-one] | >22 | < 4.52 | 5.87 | 2.46% | 
3 | C[C@H]1CN(c2ccc(F)cc2)C(=O)c2cc(CNc3ccc(OC(F)F)cc3)nn21 [Compound 65, (S)-2-(((4-(difluoromethoxy)phenyl)amino)methyl)-5-(4-fluorophenyl)-7-methyl-6,7-dihydropyrazolo[1,5-a]pyrazin-4(5H)-one] | >22 | < 4.52 | 5.87 | 2.16% | 
4 | C[C@@H]1CN(c2ccc(F)cc2)C(=O)c2cc(CNc3ccc(CC#N)cc3)nn21 [Compound 66, (R)-2-(4-(((5-(4-fluorophenyl)-7-methyl-4-oxo-4,5,6,7-tetrahydropyrazolo[1,5-a]pyrazin-2-yl)methyl)amino)phenyl)acetonitrile] | >20 | < 4.52 | 5.84 | 0.95% | 
5 | C[C@H]1CN(c2ccc(F)cc2)C(=O)c2cc(CNc3ccc(CC#N)cc3)nn21 [Compound 67, (S)-2-(4-(((5-(4-fluorophenyl)-7-methyl-4-oxo-4,5,6,7-tetrahydropyrazolo[1,5-a]pyrazin-2-yl)methyl)amino)phenyl)acetonitrile] | >11 | < 4.52 | 5.59 | 1.96% | 
6 | C[C@@H]1CN(c2ccc(F)cc2)C(=O)c2cc(CNc3cccc(F)c3F)nn21 [Compound 68, (R)-2-(((2,3-difluorophenyl)amino)methyl)-5-(4-fluorophenyl)-7-methyl-6,7-dihydropyrazolo[1,5-a]pyrazin-4(5H)-one] | >8.1 | < 5.00 | 5.91 | 2.68% | 53.2%
7 | C[C@H]1CN(c2ccc(F)cc2)C(=O)c2cc(CNc3cccc(F)c3F)nn21 [Compound 69, (S)-2-(((2,3-difluorophenyl)amino)methyl)-5-(4-fluorophenyl)-7-methyl-6,7-dihydropyrazolo[1,5-a]pyrazin-4(5H)-one] | 2.59 | 5.24 | 5.65 | 2.19% | 89.1%
8 | C[C@@H]1CN(c2ccc(F)cc2)C(=O)c2cc(CNc3cc(F)ccc3F)nn21 [Compound 70, (R)-2-(((2,5-difluorophenyl)amino)methyl)-5-(4-fluorophenyl)-7-methyl-6,7-dihydropyrazolo[1,5-a]pyrazin-4(5H)-one] | >8.7 | < 5.00 | 5.94 | 2.67% | 57.5%
9 | C[C@H]1CN(c2ccc(F)cc2)C(=O)c2cc(CNc3cc(F)ccc3F)nn21 [Compound 71, (S)-2-(((2,5-difluorophenyl)amino)methyl)-5-(4-fluorophenyl)-7-methyl-6,7-dihydropyrazolo[1,5-a]pyrazin-4(5H)-one] | 7.33 | 5.02 | 5.88 | 1.6% | 76.6%
10 | C[C@@H]1CN(c2ccc(F)cc2)C(=O)c2cc(CNc3c(F)cccc3F)nn21 [Compound 72, (R)-2-(((2,6-difluorophenyl)amino)methyl)-5-(4-fluorophenyl)-7-methyl-6,7-dihydropyrazolo[1,5-a]pyrazin-4(5H)-one] |  |  |  | 4.1% | 59.9%
11 | C[C@H]1CN(c2ccc(F)cc2)C(=O)c2cc(CNc3c(F)cccc3F)nn21 [Compound 73, (S)-2-(((2,6-difluorophenyl)amino)methyl)-5-(4-fluorophenyl)-7-methyl-6,7-dihydropyrazolo[1,5-a]pyrazin-4(5H)-one] |  |  |  | 4.07% | 63.9%
12 | C[C@H]1CN(c2ccc(F)cc2)C(=O)c2cc(CNc3cc(F)cc(F)c3)nn21 [Compound 74, (S)-2-(((3,5-difluorophenyl)amino)methyl)-5-(4-fluorophenyl)-7-methyl-6,7-dihydropyrazolo[1,5-a]pyrazin-4(5H)-one] | >4.2 | < 5.00 | 5.63 | -2.19% | 59.3%
13 | C[C@@H]1CN(c2ccc(F)cc2)C(=O)c2cc(CNc3ccc(F)cc3F)nn21 [Compound 75, (R)-2-(((2,4-difluorophenyl)amino)methyl)-5-(4-fluorophenyl)-7-methyl-6,7-dihydropyrazolo[1,5-a]pyrazin-4(5H)-one] | 7.56 | 5.23 | 6.11 | 2.66% | 85.6%
14 | C[C@H]1CN(c2ccc(F)cc2)C(=O)c2cc(CNc3ccc(F)cc3F)nn21 [Compound 76, (S)-2-(((2,4-difluorophenyl)amino)methyl)-5-(4-fluorophenyl)-7-methyl-6,7-dihydropyrazolo[1,5-a]pyrazin-4(5H)-one] | 7.00 | 5.09 | 5.93 | 0.35% | 86.1%
15 | C[C@@H]1CN(c2ccc(F)cc2)C(=O)c2cc(CNc3ccc(F)c(F)c3)nn21 [Compound 77, (R)-2-(((3,4-difluorophenyl)amino)methyl)-5-(4-fluorophenyl)-7-methyl-6,7-dihydropyrazolo[1,5-a]pyrazin-4(5H)-one] | >19 | < 4.52 | 5.80 | 3.77% | 
16 | C[C@H]1CN(c2ccc(F)cc2)C(=O)c2cc(CNc3ccc(F)c(F)c3)nn21 [Compound 78, (S)-2-(((3,4-difluorophenyl)amino)methyl)-5-(4-fluorophenyl)-7-methyl-6,7-dihydropyrazolo[1,5-a]pyrazin-4(5H)-one] | >8.5 | < 5.00 | 5.93 | 1.23% | 61.6%
17 | C[C@@H]1CN(c2ccc(F)cc2)C(=O)c2cc(CNc3c(F)cc(F)cc3F)nn21 [Compound 79, (R)-5-(4-fluorophenyl)-7-methyl-2-(((2,4,6-trifluorophenyl)amino)methyl)-6,7-dihydropyrazolo[1,5-a]pyrazin-4(5H)-one] | >7.8 | < 5.00 | 5.89 | 1.49% | 40%
18 | C[C@H]1CN(c2ccc(F)cc2)C(=O)c2cc(CNc3c(F)cc(F)cc3F)nn21 [Compound 80, (S)-5-(4-fluorophenyl)-7-methyl-2-(((2,4,6-trifluorophenyl)amino)methyl)-6,7-dihydropyrazolo[1,5-a]pyrazin-4(5H)-one] | 1.79 | 5.11 | 5.36 | -0.58% | 95.8%
